Measurements taken from PMC9050769 (European Journal of Drug Metabolism and Pharmacokinetics, 2022).
Read-outs that look alike come from different tables or passages of the source.

Legend:
[1] = Observed tramadol and ODT blood concentrations; format: in vivo, human
[2] = more potent than tramadol; cited from earlier work
mu (µ) opioid receptor = conditions: higher than that of tramadol; cited from earlier work
[3] = cited from earlier work
[4] = before inclusion of CrCL covariate (base model)
[5] = final model (with CrCL covariate)

CN(C)C[C@H]1CCCC[C@]1(O)c1cccc(O)c1 [O-desmethyltramadol]
BSV in CLm (final model): 21.6% | CLm/F, clearance of O-desmethyltramadol (final model): 0.143 L/h | ODT concentration ([1]; patients received 100 mg of tramadol): around 100 µg/l | ODT/tramadol concentration ratio at steady state, range ([1]; trough samples, n = 17): 0.08–0.82 | potency relative to tramadol [2]: 100 times | binding affinity to the mu (µ) opioid receptor relative to tramadol (mu (µ) opioid receptor): 300 fold

CNC(C)C1CCC(N)C(OC2C(N)CC(N)C(OC3OCC(C)(O)C(NC)C3O)C2O)O1 (stereo not drawn) [gentamicin]
clearance in frail older patients compared to fit older patients [3]: reduced

COc1cccc(C2(O)CCCCC2CN(C)C)c1 (stereo not drawn) [tramadol]
BSV in CL/F [4]: 78.9% | BSV in V2/F [4]: 148% | BSV in Q (before inclusion of ISAR covariate (base model)): 4.71% | BSV in V1/F (final model): 73.8% | BSV in kt (final model): 78.5% | Q, inter-compartmental clearance (final model): 0.0426 L/h | V2/F, apparent volume of distribution in peripheral compartment (final model): 0.379 L | between-subject variability (BSV) in absorption rate constant (final model): 37.8% | BSV in CL/F [5]: 6.61% | BSV in V2/F [5]: 97.4% | BSV in Q (final model (with ISAR covariate)): 2.19%
